Measured values reported in patent US20210368837A1, “BOEHMERIA NIVEA COMPOSITIONS AND METHODS FOR TASTE MODULATION” (INTERNATIONAL FLAVORS & FRAGRANCES INC., priority 2018, published 2021).

Columns and labels:
[1] = Descriptive sensory evaluation of traumatic acid and 3-dodecenedioic acid in sugar water; details: 5 ppm in sugar water (4% sucrose), summary statement
Description: Sugar water (4% sucrose in drinking water) was prepared and used as a base solution. Traumatic acid (purchased from Cayman Chemical Company) and 3-dodecenedioic acid (isolated from a B. nivea extract) were added to the sugar water and taste descriptive sensory evaluations were performed (Table 2).

[2] = Comparison of sweetness and mouthfeel enhancement and off-flavor masking of sebacic acid with analogs; details: at 2 ppm; analogs: adipic, pimelic, suberic, undecanedioic, dodecanedioic, 1,11-undecanedicarboxylic, tetradecanedioic, hexadecanedioic acid
[3] = Descriptive sensory evaluation of traumatic acid in different applications
Description: Descriptive sensory evaluations were carried out using different amounts of traumatic acid in different applications.

[4] = Descriptive sensory evaluation of sebacic acid in different applications
Description: Descriptive sensory evaluations were carried out using different amounts of sebacic acid in different applications.

## O=C(O)C=CCCCCCCCCC(=O)O [Traumatic acid, 2-dodecenedioic acid]
[1]
  Enhancement of sweetness and mouthfeel of sugar water: enhanced the sweetness and mouthfeel of sugar water
[2]
  Sweetness and mouthfeel enhancement as well as off-flavor masking, compared among dicarboxylic acids: the strongest and the longest-lasting effect
[3]; traumatic acid 40 ppm in 3% Sugar + 0.05% Citric Acid Water Solution
  Taste Evaluation: Fatty and oily
[3]; traumatic acid 40 ppm in Water
  Taste Evaluation: Fatty and oily

## O=C(O)CCCCCCCCC(=O)O [Sebacic Acid, decanedioic acid]
[4]; sebacic acid 40 ppm in 3% Sugar + 0.05% Citric Acid Water Solution
  Taste Evaluation: Fatty and oily
[4]; sebacic acid 40 ppm in Water
  Taste Evaluation: Fatty and oily

## O=C(O)CC=CCCCCCCCC(=O)O [3-Dodecenedioic acid, 3-dodecenedioic acid]
[1]
  Enhancement of sweetness and mouthfeel of sugar water: enhanced the sweetness and mouthfeel of sugar water
[2]
  Sweetness and mouthfeel enhancement as well as off-flavor masking, compared among dicarboxylic acids: the strongest and the longest-lasting effect
